# Laboratory results published in patent US9199946B2, “Pyrimidinone carboxamide inhibitors of endothelial lipase” (BRISTOL-MYERS SQUIBB COMPANY, priority 2012, dated 2015).
# Where two headings read alike, the source gives them in different places.
# Target: T1, Endothelial lipase (EL) (Homo sapiens, UniProt Q9Y5X9)
# T1 construct: HT-1080 cells, which were transformed by RAGE technology (Athersys) to overexpress endogenous EL; endogenous in cells; conditioned medium used as the enzyme source
# T1 sequence (Q9Y5X9 21-500): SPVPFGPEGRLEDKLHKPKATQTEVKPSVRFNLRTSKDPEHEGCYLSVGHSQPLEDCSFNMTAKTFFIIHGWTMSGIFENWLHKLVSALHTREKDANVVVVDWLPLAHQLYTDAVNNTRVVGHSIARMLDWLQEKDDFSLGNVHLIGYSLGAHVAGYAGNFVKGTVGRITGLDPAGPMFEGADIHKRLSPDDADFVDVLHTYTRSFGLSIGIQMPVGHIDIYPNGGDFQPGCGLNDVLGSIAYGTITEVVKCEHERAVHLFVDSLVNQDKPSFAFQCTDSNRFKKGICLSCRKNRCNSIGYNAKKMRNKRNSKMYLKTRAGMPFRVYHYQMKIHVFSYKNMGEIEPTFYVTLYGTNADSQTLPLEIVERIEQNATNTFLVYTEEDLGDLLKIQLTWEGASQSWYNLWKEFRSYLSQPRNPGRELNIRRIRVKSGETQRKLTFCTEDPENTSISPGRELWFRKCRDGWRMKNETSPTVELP
# Test: Endothelial lipase (EL) enzymatic assay with fluorescent substrate A10070 in DMPG vesicles
# Type: biochemical
# Summary of the method: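 The enzyme source was conditioned medium from HT-1080 cells engineered to overexpress endogenous EL. It was preincubated with compound for 20 min at 37 °C in 50 mM HEPES pH 8.0, 50 mM NaCl, 1 mM CaCl2. Reactions started with DMPG vesicles carrying FRET substrate A10070 (mole fraction 0.05). The rate was taken from the linear slope of fluorescence (ex 488/em 530 nm) over 10 min.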
# [1] = range observed in the EL assay, read-out: EL IC50 values
# [2] = conditioned media from HT-1080 cells overexpressing endogenous EL, 20 min preincubation at 37° C., read-out: EL IC50
Structure (SMILES),IC50 [1],IC50 [2]
"Nc1c(C(=O)N[C@@H]2CCc3cc(Br)ccc32)[nH]c(=O)[nH]c1=O [Example 65, (R)-5-amino-N-(5-bromo-2,3-dihydro-1H-inden-1-yl)-2,6-dioxo-1,2,3,6-tetrahydropyrimidine-4-carboxamide]",≤ 10 µM,
"Nc1c(C(=O)N[C@@H]2CCc3c(Oc4ccccc4)cccc32)[nH]c(=O)[nH]c1=O [Example 88, (R)-5-amino-2,6-dioxo-N-(4-phenoxy-2,3-dihydro-1H-inden-1-yl)-1,2,3,6-tetrahydropyrimidine-4-carboxamide]",≤ 10 µM,
"Nc1c(C(=O)NC2CCC(c3cnn(Cc4ccccc4)c3)C2)[nH]c(=O)[nH]c1=O (centres unmarked) [Example 102, 5-amino-N-(3-(1-benzyl-1H-pyrazol-4-yl)cyclopentyl)-2,6-dioxo-1,2,3,6-tetrahydropyrimidine-4-carboxamide]",≤ 10 µM,
"Nc1c(C(=O)N[C@H]2CCc3ccc(Br)cc32)[nH]c(=O)[nH]c1=O [Example 55, (S)-5-amino-N-(6-bromo-2,3-dihydro-1H-inden-1-yl)-2,6-dioxo-1,2,3,6-tetrahydropyrimidine-4-carboxamide]",≤ 10 µM,
"Nc1c(C(=O)N[C@@H]2CC[C@@H](C(=O)NCc3nc4ccccc4s3)C2)[nH]c(=O)[nH]c1=O [Example 148, 5-amino-N-((1R,3R)-3-(benzo[d]thiazol-2-ylmethylcarbamoyl)cyclopentyl)-2,6-dioxo-1,2,3,6-tetrahydropyrimidine-4-carboxamide]",≤ 10 µM,
"N#C[C@]1(c2ccc(Cl)c(Cl)c2)CC[C@@H](NC(=O)c2[nH]c(=O)[nH]c(=O)c2N)CC1 [Example 7, 5-amino-N-(cis-4-cyano-4-(3,4-dichlorophenyl)cyclohexyl)-2,6-dioxo-1,2,3,6-tetrahydropyrimidine-4-carboxamide]",≤ 10 µM,
"Nc1c(C(=O)N[C@@H]2CCCc3c(NCc4ccccc4)cccc32)[nH]c(=O)[nH]c1=O [Example 123, (R)-5-amino-N-(5-(benzylamino)-1,2,3,4-tetrahydronaphthalen-1-yl)-2,6-dioxo-1,2,3,6-tetrahydropyrimidine-4-carboxamide]",≤ 10 µM,
"Nc1c(C(=O)NC2CCC(c3ccc(OCc4ccccc4)cc3)C2)[nH]c(=O)[nH]c1=O (centres unmarked) [Example 106, 5-amino-N-(3-(4-(benzyloxy)phenyl)cyclopentyl)-2,6-dioxo-1,2,3,6-tetrahydropyrimidine-4-carboxamide]",≤ 10 µM,
"Nc1c(C(=O)NC2CCOc3ccccc32)[nH]c(=O)[nH]c1=O (centres unmarked) [Example 32, 5-amino-N-(chroman-4-yl)-2,6-dioxo-1,2,3,6-tetrahydropyrimidine-4-carboxamide]",≤ 10 µM,3.74 µM
"Nc1c(C(=O)NC2CCCc3c2sc2nc[nH]c(=O)c32)[nH]c(=O)[nH]c1=O (centres unmarked) [Example 45, 5-amino-2,6-dioxo-N-(4-oxo-1,4,5,6,7,8-hexahydro[1]benzothieno[2,3-d]pyrimidin-8-yl)-1,2,3,6-tetrahydro-4-pyrimidinecarboxamide]",≤ 10 µM,3.37 µM
"Nc1c(C(=O)N[C@H]2CCCc3c(OCc4ccccc4)cccc32)[nH]c(=O)[nH]c1=O [Example 92, (S)-5-amino-N-(5-(benzyloxy)-1,2,3,4-tetrahydronaphthalen-1-yl)-2,6-dioxo-1,2,3,6-tetrahydropyrimidine-4-carboxamide]",≤ 10 µM,
"COC(=O)C[C@H]1C[C@H](NC(=O)c2[nH]c(=O)[nH]c(=O)c2N)c2ccccc2[C@@H]1c1ccccc1 [Example 21, methyl 2-((1S,2R,4S)-4-(5-amino-2,6-dioxo-1,2,3,6-tetrahydropyrimidine-4-carboxamido)-1-phenyl-1,2,3,4-tetrahydronaphthalen-2-yl)acetate]",≤ 10 µM,
"COc1ccc(C2CCC(NC(=O)c3[nH]c(=O)[nH]c(=O)c3N)C2)cc1 (centres unmarked) [Example 107, 5-amino-N-(3-(4-methoxyphenyl)cyclopentyl)-2,6-dioxo-1,2,3,6-tetrahydropyrimidine-4-carboxamide]",≤ 10 µM,

# The next lines start with the values.
IC50 [1],IC50 [2],Structure (SMILES)
≤ 10 µM,,"Cc1nn(C)c(C)c1-c1ccc([C@@H]2CC[C@H](NC(=O)c3[nH]c(=O)[nH]c(=O)c3N)C2)cc1 [Example 159, 5-amino-2,6-dioxo-N-((1S,3R)-3-(4-(1,3,5-trimethyl-1H-pyrazol-4-yl)phenyl)cyclopentyl)-1,2,3,6-tetrahydropyrimidine-4-carboxamide]"
≤ 10 µM,1.42 µM,"O=C(O)Cn1c(=O)[nH]c(C(=O)N[C@H]2CC[C@@H](c3ccccc3)CC2)c(O)c1=O [Example 267, 2-(5-Hydroxy-2,6-dioxo-4-((cis-4-phenylcyclohexyl)carbamoyl)-2,3-dihydropyrimidin-1(6H)-yl)acetic acid]"
≤ 10 µM,0.024 µM,"CCn1c(=O)c(O)c(C(=O)N[C@H]2CC[C@@H](c3ccccc3)CC2)n(Cc2ccccc2)c1=O [Example 240, 3-Benzyl-1-ethyl-5-hydroxy-2,6-dioxo-N-(cis-4-phenylcyclohexyl)-1,2,3,6-tetrahydropyrimidine-4-carboxamide]"
≤ 10 µM,,"O=C(N[C@@H]1CCC[C@@H](c2ccccc2)C1)c1[nH]c(=O)[nH]c(=O)c1O [Example 278, 5-hydroxy-2,6-dioxo-N-((1R,3R)-3-phenylcyclohexyl)-1,2,3,6-tetrahydropyrimidine-4-carboxamide]"
≤ 10 µM,,"O=C(N[C@H]1CC[C@@H](c2ccccc2)CC1)c1[nH]c(=O)[nH]c(=O)c1NCCc1c[nH]cn1 [Example 213, 5-(2-(1H-imidazol-4-yl)ethylamino)-2,6-dioxo-N-(cis-4-phenylcyclohexyl)-1,2,3,6-tetrahydropyrimidine-4-carboxamide]"
≤ 10 µM,,"O=C(N[C@H]1CC[C@@H](c2ccccc2)CC1)c1[nH]c(=O)[nH]c(=O)c1NC1CCN(Cc2ccccc2)C1 (stereo partly drawn) [Example 223, 5-(1-benzylpyrrolidin-3-ylamino)-2,6-dioxo-N-(cis-4-phenylcyclohexyl)-1,2,3,6-tetrahydropyrimidine-4-carboxamide]"
≤ 10 µM,,"CCOC(=O)N1CCC(NC(=O)c2[nH]c(=O)[nH]c(=O)c2N)c2ccccc21 (single isomer, unassigned; enantiomer b) [Example 193, Ethyl 4-(5-amino-2,6-dioxo-1,2,3,6-tetrahydropyrimidine-4-carboxamido)-3,4-dihydroquinoline-1(2H)-carboxylate (Enantiomer B)]"
≤ 10 µM,6.22 µM,"Nc1c(C(=O)N[C@H]2CC[C@@H](c3ccccc3)CC2)n(-c2cc(F)cc(C(F)(F)F)c2)c(=O)[nH]c1=O [Example 203, 5-Amino-3-(3-fluoro-5-(trifluoromethyl)phenyl)-2,6-dioxo-N-(cis-4-phenylcyclohexyl)-1,2,3,6-tetrahydropyrimidine-4-carboxamide]"
≤ 10 µM,,"CC(C)Cn1c(=O)[nH]c(C(=O)N[C@H]2CC[C@@H](c3ccccc3)CC2)c(O)c1=O [Example 253, 5-hydroxy-1-isobutyl-2,6-dioxo-N-((1s,4s)-4-phenylcyclohexyl)-1,2,3,6-tetrahydropyrimidine-4-carboxamide]"
≤ 10 µM,3.48 µM,"O=C(N[C@H]1CC[C@@H](c2ccccc2)CC1)c1[nH]c(=O)[nH]c(=O)c1NCCCn1ccnc1 [Example 216, 5-(3-(1H-imidazol-1-yl)propylamino)-2,6-dioxo-N-(cis-4-phenylcyclohexyl)-1,2,3,6-tetrahydropyrimidine-4-carboxamide]"
≤ 10 µM,,"Nc1c(C(=O)N[C@@H]2CC[C@@H](C(=O)Nc3cnn(Cc4ccccc4)c3)C2)[nH]c(=O)[nH]c1=O [Example 149, 5-amino-N-((1R,3R)-3-(1-benzyl-1H-pyrazol-4-ylcarbamoyl)cyclopentyl)-2,6-dioxo-1,2,3,6-tetrahydropyrimidine-4-carboxamide]"
≤ 10 µM,,"Nc1c(C(=O)N[C@@H]2CC[C@@H](C(=O)N[C@H]3CC[C@@H](c4cccc(C(F)(F)F)c4)CC3)C2)[nH]c(=O)[nH]c1=O [Example 150, 5-amino-2,6-dioxo-N-((1R,3R)-3-(cis-4-(3-(trifluoromethyl)phenyl)cyclohexylcarbamoyl)cyclopentyl)-1,2,3,6-tetrahydropyrimidine-4-carboxamide]"
≤ 10 µM,,"O=C(N[C@@H]1CCCc2cc(OCC(F)(F)F)ccc21)c1[nH]c(=O)[nH]c(=O)c1O [Example 256, (R)-5-hydroxy-2,6-dioxo-N-(6-(2,2,2-trifluoroethoxy)-1,2,3,4-tetrahydronaphthalen-1-yl)-1,2,3,6-tetrahydropyrimidine-4-carboxamide]"
≤ 10 µM,,"Nc1c(C(=O)NC2CCCN(c3ncccc3Cl)C2)[nH]c(=O)[nH]c1=O (centres unmarked) [Example 183, 5-amino-N-(1-(3-chloropyridin-2-yl)piperidin-3-yl)-2,6-dioxo-1,2,3,6-tetrahydropyrimidine-4-carboxamide]"
≤ 10 µM,0.967 µM,"O=C(N[C@H]1CC[C@@H](c2ccccc2)CC1)c1[nH]c(=O)n(CC(F)(F)F)c(=O)c1O [Example 243, 5-hydroxy-2,6-dioxo-N-(cis-4-phenylcyclohexyl)-1-(2,2,2-trifluoroethyl)-1,2,3,6-tetrahydropyrimidine-4-carboxamide]"
